Here are results for four compounds from ChEMBL document CHEMBL3046689, “Volatile aldehydes are promising broad-spectrum postharvest insecticides” (J Agric Food Chem, 2000).

≈ marks a conversion by molar mass, not a printed value. Calls of active or inactive are those of the source. No cut-off for these calls is given here.

In data set [1] the test system is Malus domestica. The data set is described as follows: Phytotoxicity in Malus x domestica (apple) assessed as induction of olfactory damage after compound application for 1 hr through two-tier reduced pressure fumigation at 30 mmHg for 0.5 hr and then 760 mmHg for 1.5 hr at 23 +/- 1 degC. It counts as organism-based. The conditions noted are these: in vivo.
For data set [2], the system named is Lactuca sativa. The data set is described as follows: Phytotoxicity in naked Lactuca sativa (lettuce) after compound application for 1 hr through two-tier reduced pressure fumigation at 30 mmHg for 0.5 hr and then 760 mmHg for 1.5 hr at 23 +/- 1 degC. In kind it is organism-based. The note with it: in vivo.
The next data set has as its system Oryza sativa. The data set is described as follows: Phytotoxicity in Oryza sativa (rice) assessed as induction of olfactory damage after compound application for 1 hr through two-tier reduced pressure fumigation at 30 mmHg for 0.5 hr and then 760 mmHg for 1.5 hr at 23 +/- 1 degC. The conditions noted are these: in vivo. In kind it is organism-based.
The test system of data set [3] is Malus domestica. Put plainly: Phytotoxicity in Malus x domestica (apple) assessed as induction of visual damage after compound application for 1 hr through two-tier reduced pressure fumigation at 30 mmHg for 0.5 hr and then 760 mmHg for 1.5 hr at 23 +/- 1 degC. In kind it is organism-based. The note with it: in vivo.
The next data set concerns Tetranychus urticae. The data set is described as follows: Insecticidal activity against Tetranychus urticae (two-spotted spider mite). It counts as functional, organism-based.
For data set [4], the system named is Citrus x paradisi. Put plainly: Phytotoxicity in Citrus x paradisi (grape fruit) assessed as induction of olfactory damage after compound application for 1 hr through two-tier reduced pressure fumigation at 30 mmHg for 0.5 hr and then 760 mmHg for 1.5 hr at 23 +/- 1 degC. The note with it: in vivo. In kind it is organism-based.
Data set [5] concerns Lactuca sativa. The data set is described as follows: Phytotoxicity in wrapped Lactuca sativa (lettuce) assessed as induction of olfactory damage after compound application for 1 hr through two-tier reduced pressure fumigation at 30 mmHg for 0.5 hr and then 760 mmHg for 1.5 hr at 23 +/- 1 degC. It counts as organism-based. The conditions noted are these: in vivo.
A further data set concerns Pseudococcus affinis. Put plainly: Insecticidal activity against Pseudococcus affinis. It counts as functional, organism-based.
The test system of data set [6] is Brassica oleracea var. italica. The data set is described as follows: Phytotoxicity in Brassica oleracea var. italica after compound application for 1 hr through two-tier reduced pressure fumigation at 30 mmHg for 0.5 hr and then 760 mmHg for 1.5 hr at 23 +/- 1 degC. In kind it is organism-based. The conditions noted are these: in vivo.
The next data set has as its system Pseudococcus viburni. Put plainly: Insecticidal activity against Pseudococcus viburni. In kind it is functional, organism-based.
Data set [7] concerns Vitis vinifera. The data set is described as follows: (§1) Phytotoxicity in Vitis vinifera assessed as induction of olfactory damage after compound application for 1 hr through two-tier reduced pressure fumigation at 30 mmHg for 0.5 hr and then 760 mmHg for 1.5 hr at 23 +/- 1 degC. It counts as organism-based. The conditions noted are these: in vivo.
The subject of data set [8] is Lactuca sativa. The data set is described as follows: Phytotoxicity in naked Lactuca sativa (lettuce) assessed as residual aldehyde odor after compound application through two-tier reduced pressure fumigation at 30 mmHg for 0.5 hr and then 760 mmHg for 1.5 hr at 23 +/- 1 degC after 2 hr. The conditions noted are these: in vivo. In kind it is organism-based.
Data set [9] deals with Brassica oleracea var. italica. The data set is described as follows: Phytotoxicity in Brassica oleracea var. italica assessed as induction of olfactory damage after compound application for 1 hr through two-tier reduced pressure fumigation at 30 mmHg for 0.5 hr and then 760 mmHg for 1.5 hr at 23 +/- 1 degC. It counts as organism-based. The conditions noted are these: in vivo.

Data set [10] deals with Myzus persicae. Put plainly: Insecticidal activity against Myzus persicae (green peach aphid) infested naked lettuce applied for 1 hr through two-tier reduced pressure fumigation at 30 mmHg for 0.5 hr and then 760 mmHg for 1.5 hr at 23 +/- 1 degC measured 24 hr. In kind it is functional, organism-based.
Data set [11] concerns Lactuca sativa. The data set is described as follows: Phytotoxicity in naked Lactuca sativa (lettuce) assessed as change in visual quality after compound application through two-tier reduced pressure fumigation at 30 mmHg for 0.5 hr and then 760 mmHg for 1.5 hr at 23 +/- 1 degC after 2 hr. In kind it is organism-based. The conditions noted are these: in vivo.
In data set [12] the test system is Citrus x paradisi. Put plainly: Phytotoxicity in Citrus x paradisi (grape fruit) assessed as induction of visual damage after compound application for 1 hr through two-tier reduced pressure fumigation at 30 mmHg for 0.5 hr and then 760 mmHg for 1.5 hr at 23 +/- 1 degC. In kind it is organism-based. The note with it: in vivo.
Data set [13] deals with Myzus persicae. The data set is described as follows: Insecticidal activity against Myzus persicae (green peach aphid) infested wrapped lettuce applied for 1 hr through two-tier reduced pressure fumigation at 30 mmHg for 0.5 hr and then 760 mmHg for 1.5 hr at 23 +/- 1 degC measured 24 hr. In kind it is functional, organism-based.
Data set [14] relates to Myzus persicae. The data set is described as follows: Insecticidal activity against Myzus persicae (green peach aphid) placed under third leaf of naked Iceburg lettuce heads and after compound application for 2 hr through two-tier reduced pressure fumigation at 30 mmHg for 0.5 hr and then 760 mmHg for 1.5 hr at 23 +/- 1 degC measured after 24 hr. The conditions noted are these: for LC50: Myzus persicae, read-out: LD50 (the source's name). In kind it is functional.

Data set [15] concerns Lactuca sativa. The data set is described as follows: Phytotoxicity in naked Lactuca sativa (lettuce) assessed as change in visual quality after compound application for 1 hr through two-tier reduced pressure fumigation at 30 mmHg for 0.5 hr and then 760 mmHg for 1.5 hr at 23 +/- 1 degC. It counts as organism-based. The note with it: in vivo.
Data set [16] has as its system Brassica oleracea var. capitata. The data set is described as follows: Phytotoxicity in Brassica oleracea var. capitata (cabbage) assessed as induction of olfactory damage after compound application for 1 hr through two-tier reduced pressure fumigation at 30 mmHg for 0.5 hr and then 760 mmHg for 1.5 hr at 23 +/- 1 degC. The note with it: in vivo. In kind it is organism-based.

The subject of another data set is Bemisia. The data set is described as follows: Insecticidal activity against Bemisia sp. It counts as functional, organism-based.
For data set [17], the system named is Vitis vinifera. The data set is described as follows: (§2) Phytotoxicity in Vitis vinifera assessed as induction of visual damage after compound application for 1 hr through two-tier reduced pressure fumigation at 30 mmHg for 0.5 hr and then 760 mmHg for 1.5 hr at 23 +/- 1 degC. In kind it is organism-based. The conditions noted are these: in vivo.
Data set [18] has as its system Brassica oleracea var. capitata. Put plainly: Phytotoxicity in Brassica oleracea var. capitata (cabbage) after compound application for 1 hr through two-tier reduced pressure fumigation at 30 mmHg for 0.5 hr and then 760 mmHg for 1.5 hr at 23 +/- 1 degC. In kind it is organism-based. The note with it: in vivo.
Data set [19] concerns Lactuca sativa. The data set is described as follows: Phytotoxicity in naked Lactuca sativa (lettuce) assessed as induction of olfactory damage after compound application for 1 hr through two-tier reduced pressure fumigation at 30 mmHg for 0.5 hr and then 760 mmHg for 1.5 hr at 23 +/- 1 degC. In kind it is organism-based. The conditions noted are these: in vivo.
In a further data set the test system is Brevicoryne brassicae. The data set is described as follows: Insecticidal activity against Brevicoryne brassicae (cabbage aphids). It counts as functional, organism-based.
Data set [20] relates to Frankliniella occidentalis. The data set is described as follows: Insecticidal activity against Frankliniella occidentalis (western flower thrips). In kind it is functional, organism-based.
Data set [21] relates to Persea americana. The data set is described as follows: Phytotoxicity in Persea americana (avocado) assessed as induction of olfactory damage after compound application for 1 hr through two-tier reduced pressure fumigation at 30 mmHg for 0.5 hr and then 760 mmHg for 1.5 hr at 23 +/- 1 degC. It counts as organism-based. The conditions noted are these: in vivo.
For data set [22], the system named is Vitis vinifera. The description is as §2. In kind it is organism-based. The note with it: in vivo. This is another data set of the same source.
Data set [23] concerns Vitis vinifera. The data set is described as §1. In kind it is organism-based. The conditions noted are these: in vivo. The source holds these as a separate data set.
Data set [24] has as its system Persea americana. Put plainly: Phytotoxicity in Persea americana (avocado) assessed as induction of visual damage after compound application for 1 hr through two-tier reduced pressure fumigation at 30 mmHg for 0.5 hr and then 760 mmHg for 1.5 hr at 23 +/- 1 degC. In kind it is organism-based. The note with it: in vivo.
The test system of data set [25] is Myzus persicae. The data set is described as follows: Insecticidal activity Myzus persicae (green peach aphid) on flower bulbs. In kind it is functional.
The next data set relates to Thysanoptera. The data set is described as follows: Insecticidal activity Thysanoptera (thrips) on flower bulbs. In kind it is functional.
The next data set concerns Acari. The data set is described as follows: Insecticidal activity mites on flower bulbs. In kind it is functional.
The subject of data set [26] is Frankliniella occidentalis. Put plainly: Insecticidal activity against Frankliniella occidentalis (western flower thrips) larva and adults. It counts as functional.
Data set [27] relates to Myzus persicae. The data set is described as follows: Insecticidal activity against Myzus persicae (green peach aphid) applied through atmospheric pressure fumigation at 760 mmHg for 2 hr at 23 +/- 1 degC. The conditions noted are these: read-out: LD50 (the source's name). In kind it is functional.
Data set [28] has as its system Myzus persicae. Put plainly: Potentiation factor, ratio of LD50 for Myzus persicae (green peach aphid) applied through atmospheric pressure fumigation at 760 mmHg for 2 hr at 23 +/- 1 degC to LD50 for Myzus persicae (green peach aphid) applied through two-tier reduced pressure fumigation at 30 mmHg for 0.5 hr and then 760 mmHg for 1.5 hr at 23 +/- 1 degC. It counts as functional.

The test system of data set [29] is Myzus persicae. The data set is described as follows: Insecticidal activity against Myzus persicae (green peach aphid) applied through two-tier reduced pressure fumigation at 30 mmHg for 0.5 hr and then 760 mmHg for 1.5 hr at 23 +/- 1 degC. The conditions noted are these: for LC50: Myzus persicae, read-out: LD50 (the source's name). It counts as functional.
The subject of data set [30] is Myzus persicae. Put plainly: Insecticidal activity against Myzus persicae (green peach aphid) applied through two-tier reduced pressure fumigation at 30 mmHg for 0.5 hr and then 760 mmHg for 1.5 hr at 15 degC. The note with it: read-out: LD50 (the source's name). In kind it is functional.

As for `C/C=C(\C)C=O` [2-methyl-(E)-2-butenal], the Activity result in the data set on Malus domestica [1] is on record as “Non-toxic”; with Lactuca sativa [2], “Toxic”; with Oryza sativa it was “Toxic”; in the data set with Malus domestica [3] it was “Non-toxic”; in the data set with Citrus x paradisi [4] it was “Non-toxic”; with Lactuca sativa [5] it was “Toxic”. In addition, the Activity result in data set [6] is “Toxic”; with Vitis vinifera [7] it was “Non-toxic”; with Lactuca sativa [8] it was “Toxic”; in data set [9] it was “Toxic”; in the data set on Lactuca sativa [11], “Toxic”; in the data set with Citrus x paradisi [12], “Non-toxic”. Further, the Activity entry in the data set on Lactuca sativa [15] is reported as “Toxic”; in [16] it was “Toxic”; with Vitis vinifera [17], “Non-toxic”; in data set [18] it was “Toxic”; in the data set with Lactuca sativa [19], “Toxic”; with Persea americana [21], “Non-toxic”. In addition, the Activity result in the data set with Vitis vinifera [22], in the data set on Vitis vinifera [23] and with Persea americana [24] was “Non-toxic” each time. Moreover, the outcome with Tetranychus urticae and in the data set on Brevicoryne brassicae was inactive. The result (in the data set with Pseudococcus affinis; in the data set on Pseudococcus viburni; in the data set with Myzus persicae [10]; with Myzus persicae [13]; in the data set with Bemisia; in [20]) was Active. In the data set on Myzus persicae [14], the CTP is given as 310 mg/L.hr. Besides, the LD90 with Myzus persicae [14] was 123.6 mg/L. Also, in the data set on Myzus persicae [14], the LC50 is 76.6 µg/mL (≈ 911 µM).
Take `CBr` [BROMOMETHANE]: the CTP was 100 mg/L.hr in the data set on Myzus persicae [25], 100 mg/L.hr in the data set with Thysanoptera, 100 mg/L.hr in the data set with Acari and 25 mg/L.hr in data set [26].
Turning to `CCCCCCC=O` [HEPTANAL], the LC50 stood at 15 µg/mL (≈ 131 µM) in the data set with Myzus persicae [27] and 5 µg/mL (≈ 43.8 µM) with Myzus persicae [29]. For the same compound, the Ratio with Myzus persicae [28] came to 3.
For the compound `CCCC=O` [BUTANAL], the result with Tetranychus urticae and in the data set with Brevicoryne brassicae was inactive. The LC50 is 26.1 µg/mL (≈ 362 µM) in the data set on Myzus persicae [27], 31 µg/mL (≈ 430 µM) in the data set on Myzus persicae [30], 130 µg/mL (≈ 1800 µM) in the data set with Myzus persicae [14] and 10.8 µg/mL (≈ 150 µM) with Myzus persicae [29]. The result (in the data set with Pseudococcus affinis; in the data set with Pseudococcus viburni; in the data set with Bemisia; in data set [20]) was Active. Also, the Activity entry in the data set with Lactuca sativa [8] and in the data set on Lactuca sativa [11] was “Toxic” each time. The same compound returned an LD90 in the data set with Myzus persicae [14] of 177.5 mg/L. For the same compound, in the data set with Myzus persicae [28], the Ratio is 2.4. For the same compound, the CTP with Myzus persicae [29] is listed as 21.6 mg/L.hr.
